According to US20230348917A1, “EXPRESSION VECTOR FOR USE IN METHANOTROPH” (priority 2020, published 2023):

Experiments:
M. capsulatus Bath [1] = assay: Toxicity test of isoprene and epoxy isoprene (growth assay); format: cell-based, Methylococcus capsulatus Bath; conditions: various concentrations of isoprene, or 1.35 and 13.5 mg/L epoxyisoprene; for growth of the strain expressing sMMO: absence of copper; for growth of the cells expressing pMMO: presence of copper
Procedure: To analyze the toxicity of isoprene and epoxyisoprene using wild-type strains, 2 mL cultures were transferred to 150 mL serum bottle containing 19 ml NMS medium with or without 10 μM CuCl2. After incubation for 6.5 to 7.5 hours, an appropriate amount of isoprene or epoxy isoprene (2-methyl-2-vinyloxirane) diluted in dodecane was added. The bottle was sealed, 50% of the headspace was replaced with methane, and the bottle was further incubated. Sampling of 1 mL cultures for cell density measurement was performed at appropriate time intervals using a disposable syringe without reopening the bottle.
To examine the potential toxicity of isoprene produced in M. capsulatus Bath, growth assays were performed in the presence of various concentrations of isoprene while regulating the expression of sMMO and pMMO enzymes by controlling the addition of copper.
In addition, in order to examine whether the growth inhibition of the strain was due to the oxidation of isoprene by sMMO, the strain growth was analyzed in the presence of 1.35 and 13.5 mg/L of epoxyisoprene, an oxidation product of isoprene. As a result, it was confirmed that the growth of both the sMMO-expressing strain and the pMMO-expressing strain were reduced depending on the concentration of the epoxy isoprene treated above ((d) and (e) in FIG. 17).

[2] = system: dTomato expression in M. capsulatus Bath; assay: dTomato expression by fluorescence in transconjugated M. capsulatus Bath; format: cell-based, Methylococcus capsulatus Bath; conditions: pAWP89S-Po-dTomato plasmid; 10 μM phenol
Procedure: (§1) The transconjugated M. capsulatus Bath and M. trichosporium OB3b were inoculated by 10% in NMS medium containing 25 μg/ml kanamycin and 10 μM CuCl2. For the methanotrophs transconjugated with the pAWP89S-Po-dTomato, 10 μM of phenol was contained in the medium. After sealing, 50% methane gas was substituted in the headspace. The recombinant M. capsulatus Bath was cultured at 37° C. for 24 hours or 44 to 48 hours, and therecombinant M. trichosporium OB3b was cultured at 30° C.

M. capsulatus Bath [3] = conditions: pAWP89S-Po-dTomato strain; 100 μM phenol compared with 10 μM phenol
Procedure: as §1

[4] = system: M. capsulatus Bath with the pAWP89S-Po-dTomato plasmid; conditions: 0.5 mM benzene, 24 hours
Procedure: It was confirmed whether dTomato could be induced with benzene under sMMO expression conditions (copper-deficient medium).
The M. capsulatus Bath with the pAWP89S-Po-dTomato plasmid were cultured under sMMO expression condition (copper-deficient medium) and pMMO expression condition (copper-containing medium) while supplying 0.5 mM benzene for 24 hours. A strain supplied with 10 μM of phenol was used as a control group.

[5] = system: dTomato expression in M. trichosporium OB3b; assay: dTomato expression by fluorescence (microplate reader, FACS) in transconjugated M. trichosporium OB3b; format: cell-based, Methylosinus trichosporium OB3b; conditions: pAWP89S-Ptet-dTomato plasmid; aTc induction
Procedure: For analysis of the expression level by fluorescence, 200 μl was sampled in a 96-well plate and a Tecan microplate reader (excitation: 535 nm, emission: 590 nm) was used. FACS analysis was performed using BD Biosciences FACSCalibur equipment (excitation: 488 nm, emission: 585 nm).
M. trichosporium OB3b transconjugated with the pAWP89S-Ptet-dTomato plasmid was treated with anhydrotetracycline (aTc) at 0 μM, 0.5 μM, 1 μM, or 2 μM, respectively, to induce expression, and the expression of the fluorescent protein dTomato was examined for 8 days. The experiment was performed by the method of Experimental Example 3 above.

SMILES: C=CC1(C)CO1 (stereo not shown) [epoxyisoprene, 2-methyl-2-vinyloxirane]
- growth of the strain expressing sMMO (M. capsulatus Bath [1]): reduced
- growth of the cells expressing pMMO (M. capsulatus Bath [1]): reduced

SMILES: C=CC(=C)C [isoprene]
- growth of the strain expressing sMMO (M. capsulatus Bath [1]): reduced
- growth of the cells expressing pMMO (M. capsulatus Bath [1]): unaffected

SMILES: Oc1ccccc1 [phenol]
- time after phenol supply at which fluorescence due to dTomato expression was observed [2]: 5 h
- strain growth (M. capsulatus Bath [3]): inhibited

SMILES: c1ccccc1 [benzene]
- dTomato expression (fluorescence value) ([4]; pMMO expression condition (copper-containing medium)): relatively small fluorescence value
- dTomato expression ([4]; sMMO expression condition (copper-deficient medium)): highly induced

SMILES: Cc1c2c(c(O)c3c(O)cccc13)C(=O)[C@]1(O)C(=O)C(C(N)=O)=C(O)[C@@H](N(C)C)[C@@H]1C2 [aTc, anhydrotetracycline]
- FACS distribution of dTomato fluorescence of individual cells [5]: two peaks were formed
- time required for expression to be most active [5]: about 8 days
